This note sets out measurements from US20260097047A1, “Small molecule inhibitors of the ribosome biogenesis factor NVL2” (Board of Regents, The University of Texas System, priority 2023, published 2026).

Some results are limits rather than exact numbers.

The first assay deals with HCT116 cells. As to the kind of experiment: Cell viability assay (CellTiter-Glo, 72 hours) in HCT116 human colorectal cancer cells. Format: cell-based. The conditions noted are these: Homo sapiens, HCT-116; Table 5; HCT116, 72 hours; read-out: Activity. On the procedure:
Cell culture: The HCT116 cell line was obtained from ATCC and cultured in Dulbecco's Modified Eagle's Medium (DMEM)-high glucose (Sigma Aldrich #D5796) supplemented with 10% fetal bovine serum (FBS) (Sigma-Aldrich #F2442) and 2 mM L-Glutamine (Sigma Aldrich #G7513). Cells were cultured at 37° C. in 5% CO2. The identity of all cell lines was confirmed by short tandem repeat (STR) analysis and confirmed to be mycoplasma-free using a PCR based assay (Genatlantis).
Cell viability assay: In 96-well assay plates (Corning #2903), 2,000 cells were plated per well in 100 μL of medium and allowed to adhere overnight. The next day, compounds suspended in DMSO were dispensed to the assayed wells using a D300e Digital Dispenser (Tecan). All wells were normalized to 0.5% DMSO. 72 hours after incubation at 37° C. in 5% CO2, cell viability was assayed using an ATP-based luminescent viability assay, CellTiter-Glo (Promega #G8462). Substrate was mixed 1:1 with phosphate-buffered saline (PBS) supplemented with 1% Triton X-100, and 40 μL of this mixture was added to the assay wells. Plates were shaken on a microplate shaker for 10 minutes at room temperature. Luminescence (CellTiter-Glo) was recorded using a Synergy 2 microplate reader (BioTek). In Prism 9 software (GraphPad), ten-point dose response curves were plotted with baseline-correction to the vehicle control well, and IC50 values were calculated by curve fitting using asymmetric (five parameter), least squares fit.
In general terms: Cellular ATP, detected with luciferase, serves as a proxy for viable cell number.
`CC#CCN1C(=O)c2ccccc2Cc2cc(Nc3nccnc3C#N)ccc21` [3-((5-(But-2-yn-1-yl)-6-oxo-6,11-dihydro-5H-dibenzo[b,e]azepin-2-yl)amino) pyrazine-2-carbonitrile]: the IC50 was below 500 nM.

Turning to `CC#CCN1C(=O)c2ccccc2Sc2cc(Nc3nnc(C#N)cc3C)ccc21` [6-((10-(But-2-yn-1-yl)-11-oxo-10,11-dihydrodibenzo[b,f][1,4]thiazepin-7-yl)amino)-5-methylpyridazine-3-carbonitrile], the IC50 is below 500 nM.

Turning to `CC#CCN1C(=O)c2ccccc2Sc2cc(Nc3ccccn3)ccc21` [10-(But-2-yn-1-yl)-7-(pyridin-2-ylamino)dibenzo[b,f][1,4]thiazepin-11 (10H)-one], the IC50 is below 500 nM.

On to `CC#CCN1C(=O)c2ccccc2Sc2cc(Nc3nccc(C#N)n3)ccc21` [2-((10-(But-2-yn-1-yl)-11-oxo-10,11-dihydrodibenzo[b,f][1,4]thiazepin-7-yl)amino)pyrimidine-4-carbonitrile], for which the IC50 is below 500 nM.

On to `CC#CCN1C(=O)c2ccccc2Sc2cc(Nc3ccncc3)ccc21` [10-(But-2-yn-1-yl)-7-(pyridin-4-ylamino)dibenzo[b,f][1,4]thiazepin-11 (10H)-one], for which the IC50 is below 500 nM.

In the case of `CC#CCN1C(=O)c2ccccc2Sc2cc(Nc3nccc(C)c3F)ccc21` [10-(But-2-yn-1-yl)-7-((3-fluoro-4-methylpyridin-2-yl)amino)dibenzo[b,f][1,4]thiazepin-11 (10H)-one], the IC50 is below 500 nM.

The same assay, now with this note: Homo sapiens, HCT-116; Table 6; HCT116, 72 hours; read-out: Activity.
Turning to `CC#CCN1C(=O)c2ccccc2Sc2cc(NC3CC(CO)C3)ccc21` (stereo not drawn) [Table 6: —CH2CCMe; 3-HOCH2-cBu; CH/CH; S, 10-(But-2-yn-1-yl)-7-((3-(hydroxymethyl)cyclobutyl)amino)dibenzo[b,f][1,4]thiazepin-11 (10H)-one], the IC50 is below 500 nM.

The assay is the same for the next values; noted with them: Table 3; HCT116, 72 hours; read-out: Activity.
In the case of `CC#CCN1C(=O)c2ccccc2Sc2cc(NC(=O)NC34CC(OC)(C3)C4)cnc21`, the IC50 was below 500 nM.

Staying with this assay, now noted: Table 4; HCT116, 72 hours; read-out: Activity.
`CC#CCN1C(=O)c2ccccc2Sc2cc(NC(=S)N[C@H]3C[C@H](OC)C3)cnc21` [Table 4: —CH2CCMe; trans-3-MeOcBu; N]: the IC50 is below 500 nM.

With `CC#CCN1C(=O)c2ccccc2Sc2cc(NC(=S)Nc3cccc(OC)c3)ccc21` [Table 4: —CH2CCMe; 3-MeOPh; CH], the IC50 is below 500 nM.

As for `CC#CCN1C(=O)c2ccccc2Sc2cc(NC(=S)Nc3ccc(OC)nc3)cnc21` [Table 4: —CH2CCMe; 6-MeO-pyridin-3-yl; N], the IC50 was below 500 nM.

With `CC#CCN1C(=O)c2ccccc2Sc2cc(NC(=S)NC3CC(COC)C3)cnc21` (stereo not drawn) [Table 4: —CH2CCMe; 3-MeOCH2-cBu; N], the IC50 was below 500 nM.

The assay is the same for the next values; noted with them: Table 5; HCT116, 72 hours; read-out: Activity.
For `C#CCN1C(=O)c2ccccc2Sc2cc(Nc3cccnn3)cnc21`, the IC50 is below 500 nM.

Regarding `C#CCN1C(=O)c2ccccc2Sc2cc(Nc3ncc(C)cc3C)ccc21`, the IC50 is below 500 nM.

Turning to `O=C1c2ccccc2Sc2cc(Nc3cccnn3)ccc2N1CC#CCl`, the IC50 was below 500 nM.

As for `Cc1cnc(Nc2cnc3c(c2)Sc2ccccc2C(=O)N3CC#CCl)c(C)n1`, the IC50 was below 500 nM.

Turning to `CC=CCN1C(=O)c2ccccc2Sc2cc(Nc3ncc(C)cc3C)ccc21`, the IC50 was below 500 nM.

Take `Cc1ccnnc1Nc1ccc2c(c1)Sc1ccccc1C(=O)N2CC#CCl`: the IC50 is below 500 nM.

On to `CCCC=CCN1C(=O)c2ccccc2Sc2cc(Nc3ncc(C)cc3C)cnc21`, for which the IC50 is below 500 nM.

The same assay, now with this note: Table 6; HCT116, 72 hours; read-out: Activity.
With `C#CCN1C(=O)c2ccccc2Sc2cc(NC3CC(COC)C3)ccc21` (stereo not drawn) [Table 6: —CH2CCH; 3-MeOCH2-cBu; CH/CH; S], the IC50 is below 500 nM.

Turning to `O=C1c2ccccc2Sc2cc(NC3CC4(COC4)C3)ccc2N1CC#CCl`, the IC50 is below 500 nM.

`COCC1CC(Nc2ccc3c(c2)Sc2ccccc2C(=O)N3CC#CCl)C1` (stereo not drawn): the IC50 was below 500 nM.

Still in this assay, the particulars now being: Table 7; cell viability assay, CellTiter-Glo, 72 hours; scaffold drawing 42 with R^2, R^3, X/Y, Z; read-out: Activity.
For the compound `COCCN1C(=O)c2ccccc2Sc2cc(NC(=O)c3cccc(C(=O)N(C)C)c3)ccc21` [—(CH2)2OMe; 3-Me2NC(O)Ph; CH/CH; S], the IC50 was 500 to 1000 nM.

In the case of `COCCN1C(=O)c2ccccc2Sc2cc(NC(=O)c3cccc(OCF)c3)ccc21` [—(CH2)2OMe; 3-FH2COPh; CH/CH; S], the IC50 is below 500 nM.

For the compound `COCCN1C(=O)c2ccccc2Sc2cc(NC(=O)c3ccoc3C)ccc21` [—(CH2)2OMe; 2-Me-furan-3-yl; CH/CH; S], the IC50 is 500 to 1000 nM.

Turning to `COCCN1C(=O)c2ccccc2Sc2cc(NC(=O)c3cccc(CCC#N)c3)ccc21` [—(CH2)2OMe; 3-(2′-CNEt)Ph; CH/CH; S], the IC50 is below 500 nM.

`COCCN1C(=O)c2ccccc2Sc2cc(NC(=O)c3ccc4ocnc4c3)ccc21`: the IC50 was below 500 nM.

Consider `COCCN1C(=O)c2ccccc2Sc2cc(NC(=O)c3ccc(F)c(Cl)c3)ccc21` [—(CH2)2OMe; 3-Cl,4-FPh; CH/CH; S], for which the IC50 lay in the range of 1000 to 5000 nM.

On to `COCCN1C(=O)c2ccccc2Sc2cc(NC(=O)c3ccc4nccn4c3)ccc21`, for which the IC50 fell in the range of 1000 to 5000 nM.

The same assay, now with this note: Table 8; analogs of scaffold drawing 43 defined by R^2, R^3, X/Y, W; read-out: Activity (IC50 class, cell viability assay).
Take `CC#CCN1C(=O)c2cc(F)ccc2Sc2cc(NC(=O)C=CCO)cnc21` [—CH2CCMe; CH═CHCH2OH; CH/CF; N]: the IC50 was below 500 nM.

For the compound `COc1ccc(C(=O)Nc2ccc3c(c2)Sc2ccccc2C(=O)N3CC#CC(F)(F)F)cc1` [—CH2CCCF3; 4-MeOPh; CH/CH; CH], the IC50 is below 500 nM.

In the case of `CC#CCN1C(=O)c2ccccc2Sc2cc(NC(=O)C3CCOC3)ccc21` (stereo not drawn), the IC50 is below 500 nM.

Turning to `C#CCN1C(=O)c2ccc(Cl)cc2Sc2cc(NC(=O)C3CC4(CC(=NOC)C4)C3)ccc21` (stereo not drawn), the IC50 is below 500 nM.

Regarding `CC#CCN1C(=O)c2cc(F)ccc2Sc2cc(NC(=O)[C@H]3C[C@H](O)C3)ccc21` [—CH2CCMe; trans-3-OH-cBu; CH/CF; CH], the IC50 was below 500 nM.

Consider `N#CC12CC(C(=O)Nc3cnc4c(c3)Sc3ccccc3C(=O)N4CC#CC3CC3)(C1)C2`, for which the IC50 was below 500 nM.

In the case of `CC#CCN1C(=O)c2ccc(F)cc2Sc2cc(NC(=O)c3cccc(OC)c3)ccc21` [—CH2CCMe; 3-MeOPh; CF/CH; CH], the IC50 was below 500 nM.

As to `CC#CCN1C(=O)c2ccccc2Sc2cc(NC(=O)c3ccc(OCF)cc3)ccc21` [—CH2CCMe; 4-FH2COPh; CH/CH; CH], the IC50 is below 500 nM.

On to `CC#CCN1C(=O)c2ccccc2Sc2cc(NC(=O)[C@@H]3C[C@H]3C(=O)OC)ccc21` (relative stereo) [—CH2CCMe; trans-2-MeO2C-cPr; CH/CH; CH], for which the IC50 is below 500 nM.

Regarding `COC(=O)[C@@H]1C[C@H]1C(=O)Nc1cnc2c(c1)Sc1ccccc1C(=O)N2CC#CC1CC1` (relative stereo) [—CH2CC^cPr; trans-2-MeO2C-cPr; CH/CH; N], the IC50 is below 500 nM.

On to `CC#CCN1C(=O)c2ccc(F)cc2Sc2cc(NC(=O)[C@H]3C[C@H](OC)C3)cnc21` [—CH2CCMe; trans-3-MeOcBu; CF/CH; N], for which the IC50 was below 500 nM.

Consider `CC#CCN1C(=O)c2cc(F)ccc2Sc2cc(NC(=O)C34CC(O)(C3)C4)ccc21`, for which the IC50 is below 500 nM.

For the compound `CC#CCN1C(=O)c2ccc(Cl)cc2Sc2cc(NC(=O)[C@H]3C[C@@H]3COC)cnc21` (relative stereo) [—CH2CCMe; trans-2-MeOCH2-cPr; CCl/CH; N], the IC50 was below 500 nM.

`CC#CCN1C(=O)c2ccccc2Sc2cc(NC(=O)C3CC4(COC4)C3)cnc21`: the IC50 was below 500 nM.

Consider `COC12CC(C(=O)Nc3cnc4c(c3)Sc3ccc(F)cc3C(=O)N4CC#CC3CC3)(C1)C2`, for which the IC50 was below 500 nM.

As for `CON=C1CC2(C1)CC(C(=O)Nc1cnc3c(c1)Sc1ccc(F)cc1C(=O)N3CC#CC1CC1)C2` (stereo not drawn), the IC50 is below 500 nM.

With `O=C1c2ccccc2Sc2cc(NC(=O)C34CC(C3)C4)cnc2N1CC#CC1CC1`, the IC50 was below 500 nM.

Regarding `CO[C@H]1C[C@H](C(=O)Nc2cnc3c(c2)Sc2ccccc2C(=O)N3CC#CC2CC2)C1` [—CH2CC^cPr; trans-3-MeOcBu; CH/CH; N], the IC50 was below 500 nM.

Turning to `CC#CCN1C(=O)c2ccccc2Sc2cc(NC(=O)C34CC(C#N)(C3)C4)cnc21`, the IC50 was below 500 nM.

`CC#CCN1C(=O)c2cc(F)ccc2Sc2cc(NC(=O)C=CCOC)ccc21` [—CH2CCMe; CH—═CHCH2OMe; CH/CF; CH]: the IC50 was below 500 nM.

On to `CC#CCN1C(=O)c2ccccc2Sc2cc(NC(=O)c3ccc(OC(F)(F)F)cc3)ccc21` [—CH2CCMe; 4-CF3OPh; CH/CH; CH], for which the IC50 is below 500 nM.

Still in this assay, the particulars now being: Table 9; HCT116, 72 hours; read-out: Activity.
In the case of `CO[C@H]1C[C@H](C(=O)Nc2ccc3c(c2)Cc2ccccc2C(=O)N3CC#CC2CC2)C1` [Table 9: —CH2CCCPr; trans-3-MeOcBu; CH2], the IC50 was below 500 nM.

`CC1c2ccccc2C(=O)N(CC#CC2CC2)c2ccc(NC(=O)C3CC4(COC4)C3)cc21` (stereo not drawn): the IC50 was below 500 nM.

Regarding `CC#CCN1C(=O)c2ccccc2C(C)c2cc(NC(=O)C(C)CCOC)ccc21` (stereo not drawn) [Table 9: —CH2CCMe; MeO(CH2)2CHMe-; CHMe], the IC50 was below 500 nM.

The assay is the same for the next values; noted with them: cell viability assay; Table 10 analogs of scaffold drawing 45 defined by R2, R3, X/Y, W; read-out: Activity.
Turning to `CC#CCN1C(=O)c2ccc(F)cc2Sc2cc(NC(=O)[C@H]3C[C@H](OC)C3)cnc21` [—CH2CCMe; trans-3-MeOcBu; CF/CH; N], the IC50 is below 500 nM.
